Six molecules from patent publication EP4653000A1, “INHIBITORS OF PSEUDOMONAS AERUGINOSA ELASTASE (LASB) FOR THE TREATMENT OF PSEUDOMONAS KERATITIS” (Helmholtz-Zentrum für Infektionsforschung GmbH, priority 2024, dated 2025) can be followed below.

For data set [1], the system named is P. aeruginosa strain PA54. Kind of data set: LasB and desmosin levels in eye homogenate in the experimental bacterial keratitis model (LC-MS/MS). To be noted: for LasB levels in eye homogenate: compared with vehicle (highest levels), p < 0.05, Figure 2 (b). The format is in vivo, C57BL/6N mice.
Data set [2] relates to P. aeruginosa strain PA54. Kind of data set: Antibiotic susceptibility / minimum inhibitory concentration (MIC) of strain PA54. To be noted: strain PA54, clinical isolate from eye wound swab. It counts as cell-based, Pseudomonas aeruginosa. An excerpt:
Pseudomonas aeruginosa. The P. aeruginosa strain PA54 was employed to induce an experimental bacterial keratitis in the aforementioned C57BL/6N mice. The strain PA54 was isolated from a human infection (wound swab from the eye) and collected at Saarland University Medical Center's Institute for Medical Microbiology and Hygienics (IMMH) in 2009.

Data set [3] is described as follows: Concentration of HIPS-7178 in eye homogenate and serum in the keratitis model (HPLC-MS/MS). The format is in vivo, C57BL/6N mice. Particulars: topical 5 µL of 1 mg/mL every eight hours along 72h; Figure 2 (a). On the procedure: Animals. The animal experiments were approved by Saarland University's Animal Welfare Committee (Application number: 17/2021) and conducted in accordance with German and European recommendations and guidelines for the ethical use of animals. The laboratory animals were all C57BL/6N female eight to eleven months old mice. Unlimited access to water and show was secured. Temperature was closely maintained around 22 °C and relative air humidity around 50%. Light and darkness alternated at twelve-hour intervals. All laboratory animals were purchased from Charles River GmbH, Sulzfeld, Germany.
Infection procedure. Anesthesia and infection were performed as previously published. […]
Documentation and Treatment. […] Keratitis severity was visualized using a stereomicroscope (Leitz ELVAR, Wetzlar, Germany) at 16× magnification combined with a high-resolution microscope digital camera (Seben GmbH, Berlin, Germany) and evaluated using a previously described clinical scoring scheme (Lyu et al., 2020). […] The body weight of the mice was measured daily and used as welfare indicator. General condition and behavior were also recorded daily. […]

As for `C[C@@H](O)[C@H]1C(=O)N2C(C(=O)O)=C(S[C@@H]3CN[C@H](C(=O)N(C)C)C3)[C@H](C)[C@H]12` [meropenem], in data set [1] (compared with uninfected control, Figure 2 (c)), the “Desmosin levels in eye” value is “similarly high levels as uninfected group”. The “LasB levels in eye homogenate” value in data set [1] is “reduced levels”.

In the case of gentamicin, in data set [2], the “sensibility of PA54 (multidrug-resistant classification)” value (“sensibility of PA54” for short) is reported as “lacking sensibility”. Take `CO/N=C(\C(=O)N[C@@H]1C(=O)N2C(C(=O)[O-])=C(C[N+]3(C)CCCC3)CS[C@H]12)c1csc(N)n1` [cefepime]: in data set [2], the “sensibility of PA54” value is “lacking sensibility”.

Consider `CC(=O)c1ccc(NC(=O)[C@@H](NC(=O)C(CC(C)C)P(=O)(O)O)C(C)C)cc1` (some centres unmarked) [HIPS-7178], for which the “HIPS-7178 concentrations in eye homogenate and serum” value in data set [3] is “similarly high”. Besides, in data set [1], the “LasB levels in eye homogenate” value is listed as “reduced levels”. On to `C[C@@H]1O[C@@H]1P(=O)(O)O` [fosfomycin], for which the “sensibility of PA54” value in data set [2] is on record as “lacking sensibility”. In the case of `CC(C)(O/N=C(\C(=O)N[C@@H]1C(=O)N2C(C(=O)[O-])=C(C[n+]3ccccc3)CS[C@H]12)c1csc(N)n1)C(=O)O` [ceftazidime], the “sensibility of PA54” value in data set [2] is listed as “lacking sensibility”.
